Structures are written as SMILES.

Chain of Albumin (P02768 whole entry): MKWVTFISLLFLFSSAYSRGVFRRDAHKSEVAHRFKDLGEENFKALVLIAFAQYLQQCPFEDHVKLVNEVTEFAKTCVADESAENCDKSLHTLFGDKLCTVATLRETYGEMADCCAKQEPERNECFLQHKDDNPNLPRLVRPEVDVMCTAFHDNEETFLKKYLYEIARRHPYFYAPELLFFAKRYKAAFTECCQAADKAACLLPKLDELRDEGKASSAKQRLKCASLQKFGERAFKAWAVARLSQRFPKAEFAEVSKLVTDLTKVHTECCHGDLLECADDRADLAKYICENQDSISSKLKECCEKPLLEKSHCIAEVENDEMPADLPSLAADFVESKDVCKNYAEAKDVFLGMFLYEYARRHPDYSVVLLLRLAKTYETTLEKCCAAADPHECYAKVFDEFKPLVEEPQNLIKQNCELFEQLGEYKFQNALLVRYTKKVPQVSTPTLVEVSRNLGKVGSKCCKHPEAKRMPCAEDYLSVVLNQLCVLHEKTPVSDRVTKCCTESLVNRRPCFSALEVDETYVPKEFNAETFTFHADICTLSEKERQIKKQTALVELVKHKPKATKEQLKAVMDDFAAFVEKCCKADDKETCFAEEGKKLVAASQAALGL

Tested on in the first data set: not listed separately
As to the kind of experiment: Stability in mouse plasma assessed as parent compound remaining measured after 1 hrs by TLC analysis. The format is ADME, cell-free. The settings on record: read-out: Stability.
For the compound `COCOCc1cc(C(=O)NCC(=O)O)cc(COCOC)c1[125I]`, the remaining at 1 h was 92.9%.
Same read-out and setting: the same measure for `COCOCc1cc(C(=O)NCC(=O)O)cc(COCOC)c1[211At]`: 81.5%.
Same read-out and setting: the same measure for `O=C(O)CNC(=O)c1cc(CO)c([125I])c(CO)c1`: 95.8%; for `O=C(O)CNC(=O)c1ccc([125I])cc1`: 98.4%.
The same measure, in the same setting: the same measure for `CN(C)C(=O)c1cc(C(=O)NCC(=O)O)cc(C(=O)N(C)C)c1[125I]`: 92.7%; for `CN(C)C(=O)c1cc(C(=O)NCC(=O)O)ccc1[211At]`: 95.8%; for `CN(C)C(=O)c1cc(C(=O)NCC(=O)O)cc(C(=O)N(C)C)c1[211At]`: 92%.
Regarding `O=C(O)CNC(=O)c1cc(CO)c([211At])c(CO)c1`, the remaining at 1 h was 88.7%.
Still for that read-out and setting: the same measure for `O=C(O)CNC(=O)c1ccc([211At])cc1`: 81.4%; for `CN(C)C(=O)c1cc(C(=O)NCC(=O)O)ccc1[125I]`: 96.9%.

The next data set concerns the target Albumin (Homo sapiens, UniProt P02768). Briefly: Binding affinity to human serum albumin assessed as binding constant by ITC analysis. The format is ADME. The settings on record: isolated protein. On the technique in general: In ITC the heat of successive injections is recorded.
As for `O=C(O)CNC(=O)c1ccccc1` [HIPPURIC ACID], the Kb was determined as 1000 M⁻¹.

Tested on in another data set: not listed separately
As to the kind of experiment: In vivo stability in male ddY mouse stomach assessed as decrease in radioactivity at 37 kBq, iv measured after 10 to 240 mins by autowell-gamma counter analysis. Format: ADME, organism-based. The settings on record: time 10-240 min.
Take `COCOCc1cc(C(=O)NCC(=O)O)cc(COCOC)c1[125I]`: the Stability result is “Stable”.
Same read-out and setting: next, `COCOCc1cc(C(=O)NCC(=O)O)cc(COCOC)c1[211At]`: “Unstable”; `O=C(O)CNC(=O)c1cc(CO)c([125I])c(CO)c1`: “Stable”.
Regarding `O=C(O)CNC(=O)c1ccc([125I])cc1`, the Stability result is recorded as “Stable”.
Regarding `CN(C)C(=O)c1cc(C(=O)NCC(=O)O)cc(C(=O)N(C)C)c1[125I]`, the Stability result is “Stable”.
On the same count and under the same terms, the same measure for `CN(C)C(=O)c1cc(C(=O)NCC(=O)O)ccc1[211At]`: “Unstable”; for `CN(C)C(=O)c1cc(C(=O)NCC(=O)O)cc(C(=O)N(C)C)c1[211At]`: “Stable”; for `O=C(O)CNC(=O)c1cc(CO)c([211At])c(CO)c1`: “Unstable”.
Same read-out and setting: the same measure for `O=C(O)CNC(=O)c1ccc([211At])cc1`: “Unstable”.

Tested on in another data set: not listed separately
Briefly: In vivo stability in male ddY mouse thyroid gland assessed as decrease in radioactivity at 37 kBq, iv measured after 10 to 240 mins by autowell-gamma counter analysis. The format is ADME, organism-based. The settings on record: time 10-240 min.
As for `COCOCc1cc(C(=O)NCC(=O)O)cc(COCOC)c1[125I]`, the Stability entry was “Stable”.
The same measure, in the same setting: the same measure for `COCOCc1cc(C(=O)NCC(=O)O)cc(COCOC)c1[211At]`: “Unstable”.
In the case of `O=C(O)CNC(=O)c1cc(CO)c([125I])c(CO)c1`, the Stability result is “Stable”.
`O=C(O)CNC(=O)c1ccc([125I])cc1`: the Stability entry is listed as “Stable”.
`CN(C)C(=O)c1cc(C(=O)NCC(=O)O)cc(C(=O)N(C)C)c1[125I]`: the Stability entry is given as “Stable”.
Still for that read-out and setting: the same measure for `CN(C)C(=O)c1cc(C(=O)NCC(=O)O)ccc1[211At]`: “Unstable”; for `CN(C)C(=O)c1cc(C(=O)NCC(=O)O)cc(C(=O)N(C)C)c1[211At]`: “Stable”.
For `O=C(O)CNC(=O)c1cc(CO)c([211At])c(CO)c1`, the Stability result was “Unstable”.
On the same count and under the same terms, the same measure for `O=C(O)CNC(=O)c1ccc([211At])cc1`: “Unstable”.

Tested on in the next data set: not listed separately
As to the kind of experiment: In vivo metabolic stability in male ddY mouse urine assessed as intact compound at 37 kBq, iv measured after 1 hrs by RP-HPLC analysis. Format: ADME, organism-based. As to conditions: read-out: Stability; call rule not given here.
Turning to `CN(C)C(=O)c1cc(C(=O)NCC(=O)O)cc(C(=O)N(C)C)c1[125I]`, the remaining at 1 h came to 75.7%.
`CN(C)C(=O)c1cc(C(=O)NCC(=O)O)cc(C(=O)N(C)C)c1[211At]`: the remaining at 1 h was found to be 86.4%.

Tested on in another data set: not listed separately
Briefly: Drug accumulation in male ddY mouse liver at 37 kBq, iv measured after 10 to 240 mins by autowell-gamma counter analysis. The format is ADME, organism-based. The settings on record: in vivo, time 10-240 min.
Consider `O=C(O)CNC(=O)c1cc(CO)c([125I])c(CO)c1`, for which the Drug uptake result is given as “Active”.
With `CN(C)C(=O)c1cc(C(=O)NCC(=O)O)cc(C(=O)N(C)C)c1[125I]`, the Drug uptake entry is given as “Active”.
For the compound `CN(C)C(=O)c1cc(C(=O)NCC(=O)O)cc(C(=O)N(C)C)c1[211At]`, the Drug uptake entry was “Active”.
Still for that read-out and setting: next, `CN(C)C(=O)c1cc(C(=O)NCC(=O)O)ccc1[125I]`: “Active”.

Tested on in the next data set: not listed separately
Briefly: Drug accumulation in male ddY mouse intestine at 37 kBq, iv measured after 10 to 240 mins by autowell-gamma counter analysis. As to conditions: in vivo, time 10-240 min. The format is ADME, organism-based.
With `O=C(O)CNC(=O)c1cc(CO)c([125I])c(CO)c1`, the Drug uptake result is given as “Active”.
`CN(C)C(=O)c1cc(C(=O)NCC(=O)O)cc(C(=O)N(C)C)c1[125I]`: the Drug uptake entry is recorded as “Active”.
On the same count and under the same terms, the same measure for `CN(C)C(=O)c1cc(C(=O)NCC(=O)O)cc(C(=O)N(C)C)c1[211At]`: “Active”; for `CN(C)C(=O)c1cc(C(=O)NCC(=O)O)ccc1[125I]`: “Active”.

Tested on in the next data set: not listed separately
As to the kind of experiment: Drug accumulation in male ddY mouse kidney at 37 kBq, iv measured after 10 to 240 mins by autowell-gamma counter analysis. Format: ADME, organism-based. As to conditions: in vivo, time 10-240 min.
As to `O=C(O)CNC(=O)c1cc(CO)c([125I])c(CO)c1`, the Drug uptake entry is “Active”.
For `O=C(O)CNC(=O)c1ccc([125I])cc1`, the Drug uptake entry was “Active”.
Regarding `CN(C)C(=O)c1cc(C(=O)NCC(=O)O)cc(C(=O)N(C)C)c1[125I]`, the Drug uptake result is “Active”.
Same read-out and setting: the same measure for `CN(C)C(=O)c1cc(C(=O)NCC(=O)O)ccc1[125I]`: “Active”.

The record behind these values is ChEMBL document CHEMBL6096687, “In Vivo Stability Improvement of Astatobenzene Derivatives by Introducing Neighboring Substituents” (J Med Chem, 2025).
